Columns and labels:
[1] = target: T1, hyaluronidase taken from bovine testicles (Bos taurus, UniProt Q2YDK3); test: Effect on hyaluronidase activity; type: biochemical; details: concentration range 0.01-0.3 mM; bovine testicular hyaluronidase, pH 3.5
T1 construct: purchased Sigma Co; host or cells: bovine testicles
T1 sequence (Q2YDK3 36-553): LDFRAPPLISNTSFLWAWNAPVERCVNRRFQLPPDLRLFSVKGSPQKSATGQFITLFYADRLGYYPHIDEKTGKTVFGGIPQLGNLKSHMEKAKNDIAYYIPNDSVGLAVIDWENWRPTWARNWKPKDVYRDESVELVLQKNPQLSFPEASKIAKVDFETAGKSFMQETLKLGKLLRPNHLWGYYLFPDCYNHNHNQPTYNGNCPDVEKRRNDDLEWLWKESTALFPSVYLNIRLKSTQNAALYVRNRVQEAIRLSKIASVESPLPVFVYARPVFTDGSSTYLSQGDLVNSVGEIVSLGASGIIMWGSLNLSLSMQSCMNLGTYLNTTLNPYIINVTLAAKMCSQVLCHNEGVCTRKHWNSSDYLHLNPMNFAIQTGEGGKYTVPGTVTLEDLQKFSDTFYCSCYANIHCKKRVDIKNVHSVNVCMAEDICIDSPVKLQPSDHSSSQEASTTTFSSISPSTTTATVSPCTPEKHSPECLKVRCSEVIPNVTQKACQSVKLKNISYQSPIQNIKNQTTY
Protocol: 0.8 mg/ml of a hyaluronidase (a product of Sigma Co.) taken from bovine testicles was used as an enzyme. Test compounds (compound Nos. 1, 2, 4, 7, 8, 9 and 13) were dissolved at various concentrations in a 1 M acetate buffer (pH 3.5) and heated at 37° C. for 20 minutes. Then, calcium chloride was added to each of the resulting solutions so that the calcium chloride concentration became 5 mM, and each of the resulting mixtures was heated at 37° C. for 20 minutes.
Thereto was added potassium hyaluronate so that its concentration in the buffer became 2.4 mg/ml, and the mixture was heated at 37° C. for 40 minutes.
After the termination of the reaction, the amount of the substrate hydrolyzed was determined at 585 nm using the Elson-Morgan's procedure, from which there were determined the effects of each test compound at various concentrations on the normal enzymatic reaction.

rat gastric mucosa = type: in vivo; details: 50 mg/kg p.o.
Protocol: The compound No. 1 of the present invention and two known cyclooxygenase inhibitors, i.e. Indometacin and Piroxicam were examined for action on rat gastric mucosa. That is, the compound No. 1, Indometacin or Piroxicam was administered orally to male SD rats (body weight: 200-250 g) which had been fasted for 24 hours. After the administration, the rats were allowed to no food and no water for 48 hours. Then, the stomach of each rat was removed under ether anesthesia and fixed with formalin. The resulting stomach was incised and the length of the mucous ulcer generated in the glandular portion of the stomach was measured using a dissecting microscope (magnification of 10).

[2] = test system: rat peritoneal mast cells; test: Histamine liberation from rat peritoneal mast cells by concanavalin A; type: cell-based; details: Mast cell, test compound 0.2 mM, phosphatidylserine 3.0 μg/ml
Protocol: This test was effected in accordance with the method of R. P. Siraganian [J. Immunol., 114, 886 (1974)]. That is, a Locke solution containing phosphatidylserine, a test compound and a suspension of rat peritoneal mast cells was heated for 20 minutes at 37° C. Incidentally, the concentrations of phosphatidylserine and the test compound in the Locke solution were 3.0 μg/ml and 0.2 mM, respectively. A concanavalin A solution was added to the Locke solution, and the mixture was subjected to a reaction for 10 minutes at 37° C. After ice-cooling, the reaction mixture was subjected to centrifugation for 10 minutes at 4° C. Both the supernatant and the precipitate were measured for histamine content by the method of Shore et al. [J. Exp. Ther., 127, 182 (1959)] to determine a ratio of histamine liberated.

[3] = test system: rat plantar edema induced by carrageenin; test: Action against rat plantar edema induced by carrageenin; type: in vivo
Protocol: Male Sprague-Dawley rats weighing 200-250 g were injected s.c. (subcutaneously) with 0.1 ml of carrageenin into the subplantar region of the right hind paw. 60 minutes before the carrageenin administration, a test compound (compound No. 1) had been administered p.o. (orally). […] Thus, the anti-inflammatory effect of the compound of the present invention was proven in this animal test.

[4] = test system: rat 48-hour homologous PCA reaction; test: Rat 48-hour homologous PCA reaction; type: in vivo; details: 200 mg/kg p.o. 60 minutes before antigen; for Amount of colorant which leaked out: control 9.7 ± 1.9
Protocol: Male SD rats weighing 200-250 g were injected with 0.1 ml of a rat anti-egg albumin serum diluted with a physiological saline solution, intradermally at the back in order to passively sensitize the rats. After 48 hours, 0.5 ml of 1% Evans Blue containing 5 mg of antigen (egg albumin) was administered intravenously. After 30 minutes, each rat was sacrificed by bleeding and the skin was peeled off. Then, the amount of the coloring material in the lesion was determined by the method of Katayama et al. [Microbial. Immunol., 122 (2), 89 (1987)]. Incidentally, each test compound had been administered orally 60 minutes before the antigen administration.

male ddy mice = test: Acute toxicity by intravenous injection; type: in vivo; details: 10-500 mg/kg, 10 mice per group
Protocol: The compound of the present invention was further tested for acute toxicity by intravenous injection using male ddy mice. There was no death when the compound No. 1 of the present invention was administered in an amount of 10-500 mg/kg (each group consisted of 10 mice).

[5] = target: T1, hyaluronidase taken from bovine testicles; details: Chem. Pharm. Bull., 33 (9), 3738 (1985), read-out: "50% enzyme inhibition" concentration; cited from earlier work
[6] = test system: rat peritoneal mast cells; details: 0.3 mM; concanavalin A; Chem. Pharm. Bull., 33 (9), 3738 (1985); cited from earlier work

## CN1C(C(=O)Nc2ccccc2)=C(O)c2ccccc2S1(=O)=O [4-hydroxy-2-methyl-N-(phenyl)-2H-1,2-benzothiazine-3-carboxamido-1,1-dioxide]
[1]
  effect on hyaluronidase activity: no effect

## COc1ccc2c(c1)c(CC(=O)O)c(C)n2C(=O)c1ccc(Cl)cc1 [Indometacin]
Rat gastric mucosa
  ulcer formation, in words: very serious ulcer
Rat gastric mucosa; rats fasted 24 hours, 48 hours after administration
  Ulcer index mean S.E.: 42.8 ± 8.7

## CN1C(C(=O)Nc2ccccc2-c2nn[nH]n2)=C(O)c2ccccc2S1(=O)=O [No. 1, 4-hydroxy-2-methyl-N-[2'-(tetrazo-5"-yl)phenyl]-2H-1,2-benzothiazine-3-carboxamido-1,1-dioxide]
[2]
  inhibition at 200 µM: 93.9%
[3]; 200 mg/kg p.o. 60 min before carrageenin, 30 minutes after carrageenin administration, control 18.2%
  swelling percent: 8.0%
[3]; 200 mg/kg p.o., 1, 1.5, 2 and 3 hours after carrageenin administration
  inhibition (%) of edema, in words: About the same inhibition
[3]; 200 mg/kg p.o., 30 minutes after carrageenin administration
  inhibition of edema: 54%
[4]
  Suppression (%): 65.1%
  Amount of colorant which leaked out: 3.4 ± 1.3 μg/site
Male ddy mice
  death in acute toxicity test: no death

## CN1C(C(=O)Nc2ccccc2C(=O)O)=C(O)c2ccccc2S1(=O)=O [No. 2, 4-Hydroxy-2-methyl-N-(2'-carboxyphenyl)-2H-1,2-benzothiazine-3-carboxamido-1,1-dioxide]
[2]
  inhibition at 200 µM: 81.3%
[4]
  Suppression (%): 29.3%
  Amount of colorant which leaked out: 6.8 ± 2.3 μg/site

## CN1C(C(=O)Nc2ccc(Cl)cc2C(=O)O)=C(O)c2ccccc2S1(=O)=O [No. 3, 4-Hydroxy-2-methyl-N-(2'-carboxy-4'-chlorophenyl)-2H-1,2-benzothiazine-3-carboxamido-1,1-dioxide]
[2]
  inhibition at 200 µM: 65%

## CN1C(C(=O)Nc2cc(Cl)ccc2C(=O)O)=C(O)c2ccccc2S1(=O)=O [No. 4, 4-Hydroxy-2-methyl-N-(2'-carboxy-5'-chlorophenyl)-2H-1,2-benzothiazine-3-carboxamido-1,1-dioxide]
[2]
  inhibition at 200 µM: 85.1%

## Cc1cccc(NC(=O)C2=C(O)c3ccccc3S(=O)(=O)N2C)c1C(=O)O [No. 5, 4-Hydroxy-2-methyl-N-(2'-carboxy-3'-methylphenyl)-2H-1,2-benzothiazine-3-carboxamido-1,1-dioxide]
[2]
  inhibition at 200 µM: 85.2%

## Cc1ccc(NC(=O)C2=C(O)c3ccccc3S(=O)(=O)N2C)c(C(=O)O)c1 [No. 6, 4-Hydroxy-2-methyl-N-(2'-carboxy-4'-methylphenyl)-2H-1,2-benzothiazine-3-carboxamido-1,1-dioxide]
[2]
  inhibition at 200 µM: 63%

## CN1C(C(=O)Nc2ccc(O)cc2C(=O)O)=C(O)c2ccccc2S1(=O)=O [No. 7, 4-Hydroxy-2-methyl-N-(2'-carboxy-4'-hydroxyphenyl)-2H-1,2-benzothiazine-3-carboxamido-1,1-dioxide]
[2]
  inhibition at 200 µM: 86%

## CN1C(C(=O)Nc2c(O)cccc2C(=O)O)=C(O)c2ccccc2S1(=O)=O [No. 8, 4-Hydroxy-2-methyl-N-(2'-carboxy-6'-hydroxyphenyl)-2H-1,2-benzothiazine-3-carboxamido-1,1-dioxide]
[2]
  inhibition at 200 µM: 83.7%

## CN1C(C(=O)Nc2cc([N+](=O)[O-])ccc2C(=O)O)=C(O)c2ccccc2S1(=O)=O [No. 9, 4-Hydroxy-2-methyl-N-(2'-carboxy-5'-nitrophenyl)-2H-1,2-benzothiazine-3-carboxamido-1,1-dioxide]
[2]
  inhibition at 200 µM: 106%

## CN1C(C(=O)Nc2cccc(C(=O)O)c2)=C(O)c2ccccc2S1(=O)=O [No. 10, 4-Hydroxy-2-methyl-N-(3'-carboxyphenyl)-2H-1,2-benzothiazine-3-carboxamido-1,1-dioxide]
[2]
  inhibition at 200 µM: 90.7%

## CN1C(C(=O)Nc2ccc(C(=O)O)cc2)=C(O)c2ccccc2S1(=O)=O [No. 11, 4-Hydroxy-2-methyl-N-(4'-carboxyphenyl)-2H-1,2-benzothiazine-3-carboxamido-1,1-dioxide]
[2]
  inhibition at 200 µM: 60.3%

## CN1C(C(=O)Nc2ccccn2)=C(O)c2ccccc2S1(=O)=O [Piroxicam]
[1]
  effect on hyaluronidase activity: no effect

## COc1ccc(/C=C/C(=O)Nc2ccccc2C(=O)O)cc1OC [Tranilast]
[5]
  IC50: ~230 µM
[6]
  inhibition of histamine liberation: about 20%
